The target in this test is T1, H3 receptors (Cavia porcellus, UniProt Q9JI35).
T1 construct: The source of the H3 receptors in this experiment was guinea pig brain; from tissue; host or cells: guinea pig brain membranes
As to the kind of experiment: H3-Receptor Binding Assay (guinea pig brain membranes). The settings on record: 3 nM [3H]R-α-methyl histamine or 3 nM [3H]Nα-methyl histamine, 30° C., 30 min. As for the experimental part: The source of the H3 receptors in this experiment was guinea pig brain. The animals weighed 400–600 g. The brain tissue was homogenized with a solution of 50 mM Tris, pH 7.5. The final concentration of tissue in the homogenization buffer was 10% w/v. […] The resulting supernatants were then centrifuged at 50,000×g for 20 min. in order to sediment the membranes, which were next washed three times in homogenization buffer (50,000×g for 20 min. each). The membranes were frozen and stored at −70° C. until needed.
All compounds to be tested were dissolved in DMSO and then diluted into the binding buffer (50 mM Tris, pH 7.5) such that the final concentration was 2 μg/ml with 0.1% DMSO. Membranes were then added (400 μg of protein) to the reaction tubes. The reaction was started by the addition of 3 nM [^3H]R-α-methyl histamine (8.8 Ci/mmol) or 3 nM [^3H]N^α-methyl histamine (80 Ci/mmol) and continued under incubation at 30° C. for 30 min. Bound ligand was separated from unbound ligand by filtration, and the amount of radioactive ligand bound to the membranes was quantitated by liquid scintillation spectrometry.

T1 sequence (Q9JI35 whole entry): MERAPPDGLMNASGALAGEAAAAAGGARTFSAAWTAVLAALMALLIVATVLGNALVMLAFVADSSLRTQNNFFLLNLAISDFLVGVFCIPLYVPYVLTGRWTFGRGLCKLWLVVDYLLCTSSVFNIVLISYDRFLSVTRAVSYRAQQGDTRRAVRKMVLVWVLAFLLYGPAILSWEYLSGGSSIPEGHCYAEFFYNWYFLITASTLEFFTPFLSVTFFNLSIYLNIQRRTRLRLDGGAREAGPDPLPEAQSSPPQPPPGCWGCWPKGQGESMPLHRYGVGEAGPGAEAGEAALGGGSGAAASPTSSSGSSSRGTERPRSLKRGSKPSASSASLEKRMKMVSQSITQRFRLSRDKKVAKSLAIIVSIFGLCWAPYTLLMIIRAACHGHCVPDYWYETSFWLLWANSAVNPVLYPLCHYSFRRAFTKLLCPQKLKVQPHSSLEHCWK

For `O=C(C1CCN(Cc2ccncc2)CC1)N1CCC(n2c(=O)n(CCn3cccc3)c3ccccc32)CC1` [Example 1AL], the inhibitory constant (Ki) amounted to 0.2 nM.

(Values after patent publication US7220735B2, “Benzimidazolone histamine H3 antagonists” (Schering Corporation, priority 2002, dated 2007).)
